Assay results published in the supplement of paper PMC10307832.

How the values were obtained:
Assay in all cases: relative viability (nuclei count vs DMSO), 5 days (fraction); higher = more cells survive
[1] = compound: COc1ccc(-c2ccc3c(N4CCOC[C@@H]4C)nc(N4CCOC[C@@H]4C)nc3n2)cc1CO [AZD8055] + O=C(CCCCCCC(=O)Nc1ccccc1)NO [Vorinostat] (partner 1 µM)
Outline: (§1)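 One day after seeding in 1536-well plates, lung cancer cell lines were dosed by pin tool. Dosing was either single-drug or a fixed anchor-drug dose plus five library-drug doses (not always all listed) in √10 steps. After 5 days, nuclei were stained in one fix-and-stain step and counted on 4× images, and relative viability is the nuclei count of treated wells over that of vehicle wells, given as the median of duplicate plates.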

[2] = compound: COc1ccc(-c2ccc3c(N4CCOC[C@@H]4C)nc(N4CCOC[C@@H]4C)nc3n2)cc1CO [AZD8055] + Cc1nc(NC(=O)N2CCC[C@H]2C(N)=O)sc1-c1ccnc(C(C)(C)C(F)(F)F)c1 [Alpelisib] (partner 2 µM)
Outline: as §1

[3] = compound: COc1ccc(-c2ccc3c(N4CCOC[C@@H]4C)nc(N4CCOC[C@@H]4C)nc3n2)cc1CO [AZD8055] + C[C@]1(O)C[C@@H](c2nc(-c3ccc4ccc(-c5ccccc5)nc4c3)c3c(N)nccn32)C1 [Linsitinib] (partner 1 µM)
Outline: as §1

[4] = compound: COc1ccc(-c2ccc3c(N4CCOC[C@@H]4C)nc(N4CCOC[C@@H]4C)nc3n2)cc1CO [AZD8055] + CC1(C)CCC(c2ccc(Cl)cc2)=C(CN2CCN(c3ccc(C(=O)NS(=O)(=O)c4ccc(N[C@H](CCN5CCOCC5)CSc5ccccc5)c(S(=O)(=O)C(F)(F)F)c4)cc3)CC2)C1 [Navitoclax] (partner 0.5 µM)
Outline: as §1

How did the relative viability ([1]; first compound 0.01 µM) turn out when CAL-12T was run?
Its relative viability is 0.954.

And the relative viability ([1]; first compound 0.03162 µM)?
Its relative viability is 0.631.

And the relative viability ([1]; first compound 0.1 µM)?
Its relative viability is 0.598.

What about the relative viability ([1]; first compound 0.3162 µM) of the same cell line?
Its relative viability is 0.276.

What about the relative viability ([1]; first compound 1 µM) of the same cell line?
The relative viability was 0.217.

And the relative viability ([2]; first compound 0.01 µM)?
The relative viability was 1.15.

And the relative viability ([2]; first compound 0.03162 µM)?
Its relative viability is 1.1.

What about the relative viability ([2]; first compound 0.1 µM) of the same cell line?
Its relative viability is 0.91.

And the relative viability ([2]; first compound 0.3162 µM)?
Its relative viability is 0.337.

And the relative viability ([2]; first compound 1 µM)?
Its relative viability is 0.17.

And the relative viability ([3]; first compound 0.01 µM)?
Its relative viability is 0.84.

And the relative viability ([3]; first compound 0.03162 µM)?
The relative viability was 0.658.

And the relative viability ([3]; first compound 0.1 µM)?
The relative viability was 0.465.

What about the relative viability ([3]; first compound 0.3162 µM) of the same cell line?
Its relative viability is 0.211.

And the relative viability ([3]; first compound 1 µM)?
Its relative viability is 0.258.

And the relative viability ([4]; first compound 0.01 µM)?
Its relative viability is 1.25.

And the relative viability ([4]; first compound 0.03162 µM)?
Its relative viability is 1.24.

And the relative viability ([4]; first compound 0.1 µM)?
The relative viability was 0.838.

And the relative viability ([4]; first compound 0.3162 µM)?
The relative viability was 0.35.

And the relative viability ([4]; first compound 1 µM)?
Its relative viability is 0.23.

What does the source list for COR-L23?
relative viability ([1]; first compound 0.01 µM): 0.505; relative viability ([1]; first compound 0.03162 µM): 0.395; relative viability ([1]; first compound 0.1 µM): 0.326; relative viability ([1]; first compound 0.3162 µM): 0.169; relative viability ([1]; first compound 1 µM): 0.177; relative viability ([2]; first compound 0.01 µM): 0.837; relative viability ([2]; first compound 0.03162 µM): 0.551; relative viability ([2]; first compound 0.1 µM): 0.395; relative viability ([2]; first compound 0.3162 µM): 0.155; relative viability ([2]; first compound 1 µM): 0.154; relative viability ([3]; first compound 0.01 µM): 0.977; relative viability ([3]; first compound 0.03162 µM): 0.578; relative viability ([3]; first compound 0.1 µM): 0.392; relative viability ([3]; first compound 0.3162 µM): 0.152; relative viability ([3]; first compound 1 µM): 0.14; relative viability ([4]; first compound 0.01 µM): 1.01; relative viability ([4]; first compound 0.03162 µM): 0.732; relative viability ([4]; first compound 0.1 µM): 0.468; relative viability ([4]; first compound 0.3162 µM): 0.229; relative viability ([4]; first compound 1 µM): 0.172

What does the source list for NCI-H1755?
relative viability ([1]; first compound 0.01 µM): 0.64; relative viability ([1]; first compound 0.03162 µM): 0.613; relative viability ([1]; first compound 0.1 µM): 0.57; relative viability ([1]; first compound 0.3162 µM): 0.423; relative viability ([1]; first compound 1 µM): 0.366; relative viability ([2]; first compound 0.01 µM): 0.879; relative viability ([2]; first compound 0.03162 µM): 0.744; relative viability ([2]; first compound 0.1 µM): 0.607; relative viability ([2]; first compound 0.3162 µM): 0.378; relative viability ([2]; first compound 1 µM): 0.363; relative viability ([3]; first compound 0.01 µM): 0.95; relative viability ([3]; first compound 0.03162 µM): 0.867; relative viability ([3]; first compound 0.1 µM): 0.764; relative viability ([3]; first compound 0.3162 µM): 0.474; relative viability ([3]; first compound 1 µM): 0.403; relative viability ([4]; first compound 0.01 µM): 0.953; relative viability ([4]; first compound 0.03162 µM): 0.71; relative viability ([4]; first compound 0.1 µM): 0.687; relative viability ([4]; first compound 0.3162 µM): 0.296; relative viability ([4]; first compound 1 µM): 0.307

For NCI-H1437, which relative viability ([1]; first compound 0.01 µM) is on record?
Its relative viability is 0.914.

And the relative viability ([1]; first compound 0.03162 µM)?
Its relative viability is 0.786.

And the relative viability ([1]; first compound 0.1 µM)?
The relative viability was 0.708.

What about the relative viability ([1]; first compound 0.3162 µM) of the same cell line?
The relative viability was 0.512.

And the relative viability ([1]; first compound 1 µM)?
The relative viability was 0.311.

What about the relative viability ([2]; first compound 0.01 µM) of the same cell line?
Its relative viability is 0.802.

And the relative viability ([2]; first compound 0.03162 µM)?
The relative viability was 0.808.

And the relative viability ([2]; first compound 0.1 µM)?
Its relative viability is 0.697.

What about the relative viability ([2]; first compound 0.3162 µM) of the same cell line?
The relative viability was 0.178.

What about the relative viability ([2]; first compound 1 µM) of the same cell line?
The relative viability was 0.159.

What about the relative viability ([3]; first compound 0.01 µM) of the same cell line?
Its relative viability is 0.832.

And the relative viability ([3]; first compound 0.03162 µM)?
The relative viability was 0.731.

What about the relative viability ([3]; first compound 0.1 µM) of the same cell line?
The relative viability was 0.425.

And the relative viability ([3]; first compound 0.3162 µM)?
Its relative viability is 0.143.

What about the relative viability ([3]; first compound 1 µM) of the same cell line?
The relative viability was 0.155.

What about the relative viability ([4]; first compound 0.01 µM) of the same cell line?
Its relative viability is 1.23.

And the relative viability ([4]; first compound 0.03162 µM)?
The relative viability was 1.09.

And the relative viability ([4]; first compound 0.1 µM)?
The relative viability was 0.921.

And the relative viability ([4]; first compound 0.3162 µM)?
The relative viability was 0.344.

What about the relative viability ([4]; first compound 1 µM) of the same cell line?
The relative viability was 0.213.
